Measured values: patent US20120178177A1, “Biological Components Within the Cerebrospinal Fluid” (priority 2009, published 2012)

What was measured:
SH-SY5Y cells [1] = experiment: Quantification of Annexin V-positive MPs released by differentiated SH-SY5Y cells (flow cytometry); format: cell-based, human; settings: 24 hours treatment, Staurosporine 100 and 500 nM vs vehicle DMSO 0.1%, FIG. 5A
Procedure: (§1) The SH-SY5Y cells were maintained and differentiated in cell culture conditions as described under the Materials & Methods section of Example 2. Cells were then treated for 24 hours with Staurosporine at two different concentrations or with vehicle only. At the end of the treatment, culture medium was collected and MPs were isolated and subsequently quantified by flow cytometry. Those results are representative of several independent experiments. The resulting MPs populations have been isolated and characterized by flow cytometry (A) or by two-dimensional gel electrophoresis (B) as described in the Materials and Methods section. The three gels have been compared in an area comprised between approximately 10-60 kDa and pl 3.0 to 7.0. The boxes (named C, 1, and 2) define specific areas of interest in the captured images.
The human neuronal cell line SH-SY5Y (ATCC CRL-2266) was cultured in MEM/Ham's F12 medium (1:1) supplemented with 10% foetal bovine serum. Cells were seeded at 55,000 cells/cm^2. Cell differentiation was induced by adding 9-cis retinoic acid (5 μM) for 5 days directly to complete culture medium. After 5 days, medium was replaced with complete medium supplemented with BDNF (50 ng/ml) for additional 5 days. […]
MPs quantifications were performed by flow cytometry using fluorescein-labelled, His-tagged Annexin V, as indicated in Example 1 for CS-MPs and Plasma MPs.

SH-SY5Y cells [2] = experiment: Two-dimensional gel electrophoresis of MPs from SH-SY5Y cells; format: cell-based, human; settings: MPs from SH-SY5Y cells treated with Staurosporine 100 and 500 nM vs vehicle; FIG. 5B
Procedure: as §1
The human neuronal cell line SH-SY5Y (ATCC CRL-2266) was cultured in MEM/Ham's F12 medium (1:1) supplemented with 10% foetal bovine serum. Cells were seeded at 55,000 cells/cm^2. Cell differentiation was induced by adding 9-cis retinoic acid (5 μM) for 5 days directly to complete culture medium. […]
MPs populations were obtained from Staurosporine-induced SH-SY5Y cells as indicated above. […] Non-protein impurities were removed using the ReadyPrep 2D Cleanup kit prior to isoelectrofocalisation (IEF) steps. […]

TNFalpha = experiment: Gene expression of inflammatory markers in rat brain after intracerebroventricular injection (RT-QPCR); format: in vivo; settings: LPS 50 μg/animal intracerebroventricular; rat brain (cortex, striatum, hippocampus); relative to 36B4 mRNA
Procedure: (§2) This experiment was elaborated on the basis of protocols described in previous publications (Sanna P et al., 1995). Briefly, male SD rats (225-250 g, CERJ, France) were anesthetized with pentobarbital (55 mg/kg) and positioned in a stereotaxic frame. Then, they received an intracerebroventricular injection of LPS (50 μg/animal in 3.3 μl of saline buffer) or saline (NaCl 0.9%) using a Kopf apparatus. The coordinates for the sterotaxic injections were −2.3 mm dorsal/ventral, −1.4 mm lateral, and −0.6 mm anterior/posterior from the bregma.
(§3) Total RNA was extracted using Qiagen RNA extraction kits following manufacturer's instructions. Total RNA was treated with DNase I (Ambion Inc., Austin, Tex., USA) at 37° C. for 30 minutes, followed by inactivation at 75° C. for 5 minutes. Real time quantitative PCR (RT-QPCR) assays were performed using an Applied Biosystems 7900 sequence detector. Total RNA (1 μg) was reverse transcribed with random hexamers using Taqman reverse-transcription reagents kit (Applied Biosystems) following the manufacturer's protocol. Gene expression levels were determined by Sybr green assays. 36B4 transcript was used as an internal control to normalize the variations for RNA amounts. Gene expression levels are expressed relative to 36B4 mRNA levels.
(§4) The specific primers used for the quantification were: […]

IL1beta = experiment: as above; format: in vivo; settings: LPS 50 μg/animal intracerebroventricular; rat brain (cortex, striatum, hippocampus); relative to 36B4 mRNA
Procedure: as §2, §3, §4

male SD rats [3] = experiment: Quantification of rat CS-MPs in CSF by Annexin V flow cytometry after intracerebroventricular injection; format: in vivo; settings: LPS 50 μg/animal intracerebroventricular vs saline; CSF from cisterna magna after 24 hours; FIG. 3A
Procedure: (§5) Two groups of male SD rats (n=8 for each group) were intracerebroventricularly injected with either vehicle (Saline; NaCl 0.9%) or a test substance (Lipopolysaccharides; LPS). After 24 hours, CSF was collected directly in the cisterna magna and blood was obtained by retro-orbital puncture from each animal. CS-MPs and plasma MPs populations were prepared as described in the Materials & Methods of Example 1 and the concentrations of CS-MPs (A) and Plasma MPs (B) populations in the samples were quantified for both groups of animals by flow cytometry. Data are expressed as Mean±SEM (*: p<0.05). […] In a control experiment (C), the CSF and blood samples were collected respectively in the cisterna magna and by retro-orbital, puncture from healthy male SD rats (n=8). CS-MPs and Plasma MPs populations were prepared as described in the Materials & Methods section of Example 1 and then quantified by flow cytometry. Data are expressed as Mean±SEM (*: p<0.05). […]
(§6) The quantifications were performed using a FC500 flow cytometer (Beckman-Coulter, France) by incubating for 30 minutes in the dark each samples (30 μl) with 60 ng of His-tagged, Fluorescein-labelled Annexin V in incubation buffer (2.5 mM CaCl2, 140 mM NaCl, 10 mM HEPES pH 7.4). […] Each sample was then analyzed by flow cytometry. […]

male SD rats [4] = experiment: Quantification of rat Plasma MPs by Annexin V flow cytometry after intracerebroventricular injection; format: in vivo; settings: LPS 50 μg/animal intracerebroventricular vs saline; plasma after 24 hours; FIG. 3B
Procedure: as §5, §6

Compound | change in Annexin V-positive MPs in cell culture medium (SH-SY5Y cells [1]) | protein content of MPs on two-dimensional gel (SH-SY5Y cells [2]) | induction of TNFalpha gene expression (TNFalpha) [fold] | induction of IL1beta gene expression (IL1beta) [fold] | induction of CS-MP levels (male SD rats [3]) [fold] | change of Plasma MPs (male SD rats [4])
CN[C@@H]1C[C@H]2O[C@@](C)([C@@H]1OC)n1c3ccccc3c3c4c(c5c6ccccc6n2c5c31)C(=O)NC4 [Staurosporine] | significant and dose-dependent increase | evident enrichment in proteins | – | – | – | –
Lipopolysaccharides [LPS] | – | – | 6 | 40 | 3 | without a simultaneous and significant increase
